According to patent US10961235B2, “Crystalline form of masitinib” (Sandoz AG, priority 2017, dated 2021):
Where two headings read alike, the source gives them in different places. One block for each compound: values may come before it.

Columns and labels:
[1] = cited from earlier work
[2] = cited from earlier work; for hygroscopicity (in words): as described in prior filings
[3] = GMS, 15 to 80% RH, form A comparison (same range as FIG. 6 of WO2017/016512A1); cited from earlier work
Bulk density = assay type: physicochemical
[4] = Gravimetric moisture sorption (GMS) of crystalline forms of masitinib mesylate; assay type: physicochemical
Experimental: Gravimetric moisture sorption/desorption (GMSD) isotherms were recorded with an SPSx-1μ moisture sorption analyzer (ProUmid, Ulm). The measurement cycle was started at ambient relative humidity (RH) of 25%. Relative humidity was then decreased to 5% RH in 5% steps, followed by a further decrease to 3% RH and to 0% RH. Afterwards RH was increased from 0% to 80% RH in a sorption cycle in 5% steps.
The time per step was set to a minimum of 2 hours and a maximum of 6 hours. If an equilibrium condition with a constant mass of ±0.01% within 1 hour was reached before the maximum time for all examined samples the sequential humidity step was applied before the maximum time of 6 hours. If no equilibrium was achieved the consecutive humidity step was applied after the maximum time of 6 hours. The temperature was 25±0.1° C.

[5] = Storage stability of crystalline form M, polymorphic conversion checked by XRPD; assay type: physicochemical; conditions: for conversion to crystal form I by XRPD / storage stability: 8 weeks at 40° C./75% relative humidity
Experimental: X-Ray powder diffraction (XRPD) was performed with a PANalytical X'Pert PRO diffractometer equipped with a theta/theta coupled goniometer in transmission geometry, Cu—Kα1,2 radiation (wavelength 0.15419 nm) with a focusing mirror and a solid state PIXcel detector. Diffractograms were recorded at a tube voltage of 45 kV and a tube current of 40 mA, applying a stepsize of 0.013° 2-Theta with 40 s per step (255 channels) in the angular range of 2° to 40° 2-Theta at ambient conditions.

Compound: masitinib mesylate [crystal form I]
temperatures at which thermodynamically stable ([1]; WO 2008/098949 A2): below 200 °C | water uptake in the range from 0% RH to 80% RH ([2]; 0% RH to 80% RH, described for DRX I): 4.3 w-% | behaviour at 80% relative humidity ([2]; 80% RH, WO 2008/098949 A2): remains dry | hygroscopicity (in words) ([2]; listed as DRX1): mildly hygroscopic | weight increase between 0% RH and 80% RH ([2]; response to the eESR, EP 11170200.7): 4.3 weight-%

Compound: masitinib mesylate [DRX2]
temperatures at which problems with polymorphic conversion occur ([1]; response to the eESR / EP2886543 A1, DRX2 to DRX1 upon heating): above 25 °C

Compound: masitinib mesylate [form A]
hygroscopicity (in words) ([2]; listed as crystal form A): remarkably reduced compared to DRX1 | reversible loss of water below 10% RH ([2]; moisture sorption/desorption curves, FIG. 6 of WO2017/016512A1): about 5 weight-% | Mass change (water uptake) in the range of from 15-80% RH [3]: 4.0-6.0 w-%

bulk density (Bulk density): 0.14 g/mL | hygroscopicity compared with form A [4]: less hygroscopic than form A | Mass change (water uptake / weight gain) in the range of from 15-80% RH ([4]; GMS, 15 to 80% RH, 25±0.1° C., form M, listed as Crystalline form M): 0.5-1.3 w-% | dependence of water content on relative humidity ([4]; range of 15% RH and 80% RH): relatively constant water content | conversion to crystal form I by XRPD / storage stability ([5]; listed as crystal form M): storage stable | time remaining stable as crystalline form M ([5]; 30° C. and 65% relative humidity): at least 8 weeks | time remaining stable as crystalline form M ([5]; 40° C. and 75% relative humidity): at least 8 weeks
Compound: masitinib mesylate [form M]
conversion to crystal form I by XRPD after storage ([5]; 8 weeks at 30° C./60% relative humidity): did not convert to or show detectable traces of crystal form I | conversion to crystal form I by XRPD / storage stability ([5]; listed as crystalline form M): did not convert to or show detectable traces of crystal form I | polymorphic conversion on storage ([5]; at or below 40° C., relative humidity 15% RH to 75% RH): does not result in polymorphic conversion

Compound: CS(=O)(=O)O.Cc1ccc(NC(=O)c2ccc(CN3CCN(C)CC3)cc2)cc1Nc1nc(-c2cccnc2)cs1 [form H, salt of masitinib with methane sulfonic acid]
hygroscopicity (in words) [2]: low hygroscopicity
